# Assay results from patent US8431577B2, “Crystalline form of eszopiclone, composition, preparation and uses thereof” (Tianjin Tasly Group Co., Ltd., priority 2008, dated 2013).
# Like-named read-outs stand apart in the source and are kept apart here.
# Key:
# [1] = Accelerated stability test; details: 40±2° C., RH 75±5%
# Experimental: The crystalline form of S-zopiclone was packaged in packages simulated the commercial ones, and placed in a thermostat container (temperature: 40±2° C., RH:75±5%) for 6 months. The specimens were sampled on the 1st, 2nd, 3rd and 6th month respectively to measure their stability in accordance with the key stability-relevant items.
# Male Long-Evans rats [2] = assay: Maze test; assay type: in vivo, rat
# Experimental: (§1) Male Long-Evans rats (weighing 250˜275 g) were adopted, divided into 3 groups, and fed in a 12-hour light-dark cycle. After one week of feeding, the experiment was carried out.
# [3] = Long-term reserved-sample stability test; assay type: physicochemical; details: room temperature
# Description: The crystalline form of S-zopiclone was packaged in packages simulated the commercial ones, and placed at room temperature. The specimens were sampled on the 3rd, 6th, 9th, 12th, 18th, 24th, and 36th month respectively to measure their stability in accordance with the key stability-relevant items.
# [4] = High humidity (25° C., RH 92.5%) stability test; assay type: physicochemical; details: for Content (%) / Related substances (%) Levozopiclone / Related substances (%) Other impurities: High humidity (92.5%), 25° C.; for Weight gain: high humidity 25° C., RH 92.5%
# Experimental: The crystalline form of S-zopiclone of the present invention was introduced into an open and colorless transparent weighing-bottle batch by batch, and placed in a closed vessel (KNO3 saturated solution, RH: 92.5%) for 10 days. The specimens were sampled on the 5th and 10th day respectively to measure their stability in accordance with the key stability-relevant items. Meanwhile, the weight of the tested drug pre-and post test was measured accurately.
# [5] = Crystal transformation under the stability tests (X-ray diffraction); assay type: physicochemical; details: under all stability tests (60° C., RH 92.5%, strong light, accelerated, long-term)
# [6] = for Content (%) / Related substances (%) Levozopiclone / Related substances (%) Other impurities: Strong light exposure (4500±500 Lx)
# Description: The specimens were sampled on the 5th and 10th day respectively to measure their stability in accordance with the key stability-relevant items.
# [7] = High temperature (60° C.) stability test; details: for Content (%) / Related substances (%) Levozopiclone / Related substances (%) Other impurities: High temperature (60° C.)
# Experimental: The crystalline form of S-zopiclone of the present invention was introduced into an open and colorless transparent weighing-bottle batch by batch, and placed in a thermostat container (60° C.) for 10 days. The specimens were sampled on the 5th and 10th day respectively to measure their stability in accordance with the key stability-relevant items.
# Male Long-Evans rats [8] = assay: Test of spontaneous activity; assay type: in vivo, rat; details: 10 mg/Kg body weight
# Experimental: as §1
# Horizontal activity of rats had been observed under an open circumstance to measure a total spontaneous activity. Respectively, all animals were placed into 8 black light-proof rooms, and their spontaneous activities were monitored by an infrared sensor mounted on the wall at equal intervals to record once every 10 minutes for 120 minutes.
# The crystalline form of S-zopiclone was administrated to the animals at a dose of 10 mg/Kg body weight. 30˜60 minutes after administration, the inhibitory effect on the locomotor ability reached a peak, and disappeared after 2 hours.
structure (smiles),measurement,setting,value
"CN1CCN(C(=O)O[C@H]2c3nccnc3C(=O)N2c2ccc(Cl)cn2)CC1 [crystalline form of S-zopiclone, (+)-(S)-(4-methylpiperazine-1-carboxylate)(6-(5-chloropyridinyl-2-yl)-7-carbonyl-6,7-dihydro-5-H-pyrrolo[3,4-b]pyrazin-5-yl ester)]","stability (character, melting point, related substances versus 0th day)",[1]; 6 months of accelerated test,remained stable
same,Content (%),[1]; month 0,100.06%
same,Related substances (%) Levozopiclone,[1]; month 0,0.06%
same,Related substances (%) Other impurities,[1]; month 0,0.09%
same,Content (%),[1]; month 1,100.13%
same,Related substances (%) Levozopiclone,[1]; month 1,0.07%
same,Related substances (%) Other impurities,[1]; month 1,0.10%
same,Content (%),[1]; month 2,100.02%
same,Related substances (%) Levozopiclone,[1]; month 2,0.07%
same,Related substances (%) Other impurities,[1]; month 2,0.12%
same,Content (%),[1]; month 3,99.91%
same,Related substances (%) Levozopiclone,[1]; month 3,0.05%
same,Related substances (%) Other impurities,[1]; month 3,0.12%
same,Content (%),[1]; month 6,99.73%
same,Related substances (%) Levozopiclone,[1]; month 6,0.06%
same,Related substances (%) Other impurities,[1]; month 6,0.09%
same,residence time in the open arm,Male Long-Evans rats [2]; 5 mg/Kg body weight,significantly increase
same,"effect on total entries, open arm entries and close arm entries",Male Long-Evans rats [2]; 10 mg/Kg body weight,significant effect
same,residence time in the open arm,Male Long-Evans rats [2]; 10 mg/Kg body weight,significantly increase
same,"stability (character, melting point, related substances versus 0th day)","[3]; long-term reserved-sample test, up to 36 months",remained stable
same,Content (%),[3]; month 0,100.06%
same,Related substances (%) Levozopiclone,[3]; month 0,0.06%
same,Related substances (%) Other impurities,[3]; month 0,0.09%
same,Content (%),[3]; month 3,100.3%
same,Related substances (%) Levozopiclone,[3]; month 3,0.06%
same,Related substances (%) Other impurities,[3]; month 3,0.11%
same,Content (%),[3]; month 6,100.21%
same,Related substances (%) Levozopiclone,[3]; month 6,0.06%
same,Related substances (%) Other impurities,[3]; month 6,0.14%
same,Content (%),[3]; month 9,100.16%
same,Related substances (%) Levozopiclone,[3]; month 9,0.04%
same,Related substances (%) Other impurities,[3]; month 9,0.14%
same,Content (%),[3]; month 12,100.08%
same,Related substances (%) Levozopiclone,[3]; month 12,0.06%
same,Related substances (%) Other impurities,[3]; month 12,0.14%
same,Content (%),[3]; month 18,100.12%
same,Related substances (%) Levozopiclone,[3]; month 18,0.07%
same,Related substances (%) Other impurities,[3]; month 18,0.17%
same,Content (%),[3]; month 24,99.80%
same,Related substances (%) Levozopiclone,[3]; month 24,0.07%
same,Related substances (%) Other impurities,[3]; month 24,0.18%
same,Content (%),[3]; month 36,100.06%
same,Related substances (%) Levozopiclone,[3]; month 36,0.07%
same,Related substances (%) Other impurities,[3]; month 36,0.20%
same,Content (%),[4]; day 0,100.06%
same,Related substances (%) Levozopiclone,[4]; day 0,0.06%
same,Related substances (%) Other impurities,[4]; day 0,0.09%
same,Content (%),[4]; day 5,99.86%
same,Related substances (%) Levozopiclone,[4]; day 5,0.08%
same,Related substances (%) Other impurities,[4]; day 5,0.11%
same,Content (%),[4]; day 10,99.91%
same,Related substances (%) Levozopiclone,[4]; day 10,0.07%
same,Related substances (%) Other impurities,[4]; day 10,0.11%
same,Weight gain,[4]; 5th day,0.07%
same,Weight gain,[4]; 10th day,0.08%
same,phenomenon of crystal transformation,[5],had not been observed
same,"stability (character, melting point, related substances versus 0th day)",[6]; 10 days of strong light exposure (4500±500 Lx),remained stable
same,Content (%),[6]; day 0,100.06%
same,Related substances (%) Levozopiclone,[6]; day 0,0.06%
same,Related substances (%) Other impurities,[6]; day 0,0.09%
same,Content (%),[6]; day 5,99.77%
same,Related substances (%) Levozopiclone,[6]; day 5,0.08%
same,Related substances (%) Other impurities,[6]; day 5,0.10%
same,Content (%),[6]; day 10,100.02%
same,Related substances (%) Levozopiclone,[6]; day 10,0.07%
same,Related substances (%) Other impurities,[6]; day 10,0.11%
same,"stability (character, melting point, related substances versus 0th day)",[7]; 10 days of high-temperature (60° C.),stable
same,Content (%),[7]; day 0,100.06%
same,Related substances (%) Levozopiclone,[7]; day 0,0.06%
same,Related substances (%) Other impurities,[7]; day 0,0.09%
same,Content (%),[7]; day 5,100.01%
same,Related substances (%) Levozopiclone,[7]; day 5,0.08%
same,Related substances (%) Other impurities,[7]; day 5,0.11%
same,Content (%),[7]; day 10,100.12%
same,Related substances (%) Levozopiclone,[7]; day 10,0.07%
same,Related substances (%) Other impurities,[7]; day 10,0.12%
same,time after which inhibitory effect on the locomotor ability disappeared,Male Long-Evans rats [8],2 h
